Test results published in patent US11008290B2, “Halogenated quinoline derivatives as antimicrobial agents” (University of Florida Research Foundation, Incorporated, priority 2015, dated 2021).
Converted amounts (≈) assume the structure as drawn. “And” between values parts separate entries of the source, which are not always exact repeats. Equal entries are not always repeated. Where two headings read alike, the source gives them in different places. Marks after values point to notes of the source that are not given here.

What was measured:
S. epidermidis = test: MIC, antibacterial profile of broxyquinoline and HQ-1 (FIG. 2A); format: cell-based; details: Staphylococcus epidermidis
A. baumannii = test: as above; format: cell-based, Acinetobacter baumannii
S. aureus = test: as above; format: cell-based; details: Staphylococcus aureus
MRSA-2 = test: Mechanistic investigations with metal(II)-cations (MIC assay with 200 μM metal salt); format: cell-based, Staphylococcus aureus; details: MRSA-2
Protocol: (§1) The minimum inhibitory concentration (MIC) for each compound was determined by the broth microdilution method as recommended by the Clinical and Laboratory Standards Institute (CLSI). In a 96-well plate, eleven two-fold serial dilutions of each compound were made in a final volume of 100 μL Luria Broth. Each well was inoculated with ˜10^5 bacterial cells at the initial time of incubation, prepared from a fresh log phase culture (OD600 of 0.5 to 1.0 depending on bacterial strain). […] The concentration range tested for each compound during this study was 0.10 to 100 μM. DMSO served as the vehicle and negative control in each microdilution MIC assay. DMSO was serially diluted with a top concentration of 1% v/v. Bacterial strains used: methicillin-resistant Staphylococcus aureus-2 (MRSA-2; clinical isolate from Shands Hospital in Gainesville, Fla.), methicillin-resistant Staphylococcus epidermidis (MRSE; ATCC 35984), vancomycin-resistant Enterococcus faecium (VRE, ATCC 700221).

[1] = test system: MRSA-2 planktonic cells and biofilms; test: Calgary Biofilm Device (CBD) MBC/MBEC determination; format: cell-based, Staphylococcus aureus; details: CBD; for MBC: planktonic killing, first value of MBC/MBEC cell
Protocol: (§2) Biofilm eradication experiments were performed using the Calgary Biofilm Device to determine MBC/MBEC values for various compounds of interest (Innovotech, product code: 19111). The Calgary device (96-well plate with lid containing 96 total pegs to establish biofilms; 1 peg/well) was inoculated with 125 μL of a mid-log phase culture diluted 1,000-fold in tryptic soy broth with 0.5% glucose (TSBG) to establish bacterial biofilms after incubation at 37° C. for 24 hours. The lid of the Calgary device was then removed, washed and transferred to another 96-well plate containing 2-fold serial dilutions of the test compounds (the “challenge plate”). The total volume of media with compound in each well in the challenge plate was 150 μL. The Calgary device was then incubated at 37° C. for 24 hours. The lid was then removed from the challenge plate and MBC/MBEC values were determined using different final assays. […] The MBC values were determined as the concentration giving a lack of visible bacterial growth (e.g., turbidity). For determination of MBEC values, the Calgary device lid (with attached pegs/treated biofilms) was transferred to a new 96-well plate containing 150 μL of fresh TSBG media in each well and incubated for 24 hours at 37° C. to allow viable biofilms to grow and disperse resulting in turbidity after the incubation period. […] In select experiments, treated pegs from the Calgary device were removed from lead biofilm eradicators after final incubation, sonicated for 30 minutes in PBS and plated out to determine biofilm cell killing (e.g., colony forming unit per milliliter, CFU/mL).

MRSA BAA-1707 = test: as above; format: cell-based, Staphylococcus aureus; details: Table 4, CBD
Protocol: as §2

human red blood cells = test: Hemolysis assay; format: cell-based
Protocol: Freshly drawn human red blood cells (hRBC with ethylenediaminetetraacetic acid (EDTA) as an anticoagulant) were washed with Tris-buffered saline (0.01M Tris-base, 0.155M sodium chloride (NaCl), pH 7.2) and centrifuged for 5 minutes at 3500 rpm. The washing was repeated three times with the buffer. In 96-well plate, the test compounds were added to the buffer. […] The plate was then incubated for 1 hour at 37° C. After incubation, the plate is centrifuged for 5 minutes at 3500 rpm. Then 80 μL of the supernatant were transferred to another 96-well plate and the Optical Density (OD) was read at 405 nm. […] The percent of hemolysis was calculated as (OD405 of the compound-OD405 DMSO)/(OD405 Triton X-OD405 buffer).

[2] = test system: VRE (ATCC 700221) planktonic cells and biofilms; test: Calgary Biofilm Device (CBD) MBC/MBEC determination; format: cell-based, Enterococcus faecium; details: CBD; for MBC: planktonic killing, first value of cell
Protocol: as §2

[3] = test system: vancomycin-resistant Enterococcus faecium (VRE, ATCC 700221); test: Minimum inhibitory concentration (MIC) susceptibility assay, broth microdilution; format: cell-based
Protocol: as §1

[4] = test system: methicillin-resistant Staphylococcus epidermidis (MRSE; ATCC 35984); test: as above; format: cell-based; details: for MIC: Table 2, ATCC 35984, read-out: MRSE MIC
Protocol: as §1

[5] = test system: MRSE (ATCC 35984) planktonic cells and biofilms; test: Calgary Biofilm Device (CBD) MBC/MBEC determination; format: cell-based, Staphylococcus epidermidis; details: CBD; for MBC: planktonic killing, first value of cell
Protocol: as §2

[6] = test system: methicillin-resistant Staphylococcus aureus-2 (MRSA-2; clinical isolate); test: Minimum inhibitory concentration (MIC) susceptibility assay, broth microdilution; format: cell-based; details: Staphylococcus, MRSA
Protocol: as §1

[7] = test system: MRSA-2, MRSE 35984, VRE 700221; test: MIC assays, range stated over the three drug-resistant pathogens; format: cell-based; details: range over MRSA-2, MRSE, read-out: MIC against these drug-resistant pathogens
Protocol: as §1

[8] = Table 2, biofilm eradication, second value of cell

With `Oc1c(Br)cc(Br)c2cccnc12` [Broxyquinoline] the MIC (S. epidermidis) was 12.5 µM and 4 µg/mL, the MIC (A. baumannii; Acinetobacter baumannii, read-out: MIC) was 12.5 µM and 4 µg/mL and the MIC (S. aureus) was 12.5 µM and 4 µg/mL.
In the case of `Cc1ccc2c(Br)cc(Br)c(O)c2n1` [HQ-1, reference compound], the “MIC w/Fe^2+” value (MRSA-2; 200 μM ammonium iron (II) sulfate hexahydrate) was >100^b μM and >100^c μM, the “MIC w/Cu^2+” value (MRSA-2; 200 μM copper (II) sulfate) was 25^b μM and 25^c μM and the MIC (MRSA-2; 200 μM magnesium (II) sulfate, read-out: MIC w/Mg^2+) was 1.56 µM. For the same compound, the “MIC w/Zn^2+” value (MRSA-2; 200 μM zinc (II) chloride) was 0.15^a,b μM and 0.1^a,c μM, the “MRSA-2 Clinical Isolate MBEC” value ([1]; Table 2, biofilm eradication, second value of MBC/MBEC cell) was 188 µM and the MBC ([1]; Table 2, read-out: MRSA-2 Clinical Isolate MBC) was 23.5 µM (≈ 7.45 µg/mL). For the same compound, the “MRSA-2 MBEC” value ([1]; Table 3, biofilm eradication, second value of MBC/MBEC cell) was 188 µM, the MBC ([1]; Table 3, read-out: MRSA-2 MBC) was 23.5 µM (≈ 7.45 µg/mL) and the “MRSA BAA-1707 MBEC” value (MRSA BAA-1707; biofilm eradication, second value of cell) was 46.9 µM. The MBC (MRSA BAA-1707; planktonic killing, first value of cell, read-out: MRSA BAA-1707 MBC) was 62.5 µM (≈ 19.8 µg/mL), the “% Haemolysis at 200 μM” value (human red blood cells; Table 2, human red blood cells, 1 hour at 37° C.) was ≤1% and the “% Haemolysis at 200 μM” value (human red blood cells; Table 3, human red blood cells) was ≤1%. For the same compound, the “VRE ATCC 700221 MBEC” value [2, 8] was 1.5 µM, the MBC ([2]; Table 2, read-out: VRE ATCC 700221 MBC) was 2.0 µM (≈ 0.634 µg/mL) and the “VRE MBEC” value ([2]; Table 3, biofilm eradication, second value of cell, footnote c = lowest concentration tested) was 1.5 µM. The MBC ([2]; Table 3, footnote c = lowest concentration tested, read-out: VRE MBC) was 2.0 µM (≈ 0.634 µg/mL), the “VRE MIC” value ([3]; Table 3) was 2.35^a μM and the MIC [4] was 0.39 µM (≈ 0.124 µg/mL). For the same compound, the “MRSE MIC” value ([4]; Table 3) was 0.30^a μM, the “MRSE ATCC 35984 MBEC” value [5, 8] was 93.8 µM and the MBC ([5]; Table 2, read-out: MRSE ATCC 35984 MBC) was 31.3 µM (≈ 9.92 µg/mL). For the same compound, the “MRSE MBEC” value ([5]; Table 3, biofilm eradication, second value of cell) was 93.8 µM, the MBC ([5]; Table 3, read-out: MRSE MBC) was 31.3 µM (≈ 9.92 µg/mL) and the MIC (A. baumannii) was 32 µg/mL. For the same compound, the MIC (A. baumannii; read-out: MIC) was 100 µM.
In the case of `Cc1c(Br)cc(NCc2ccc3c(Br)cc(Br)c(O)c3n2)cc1Br` [HQ-7], the MIC (MRSA-2; Staphylococcus aureus, 200 μM ammonium iron (II) sulfate hexahydrate, read-out: MIC w/Fe^2+) was > 100 µM, the MIC (MRSA-2; Staphylococcus aureus, 200 μM copper (II) sulfate, read-out: MIC w/Cu^2+) was > 100 µM and the MIC (MRSA-2; Staphylococcus aureus, 200 μM magnesium (II) sulfate, read-out: MIC w/Mg^2+) was > 100 µM. For the same compound, the MIC (MRSA-2; Staphylococcus aureus, 200 μM zinc (II) chloride, read-out: MIC w/Zn^2+) was > 100 µM, the MBC ([1]; Staphylococcus aureus, MRSA, Table 2, read-out: MRSA-2 Clinical Isolate MBC) was 500 µM (≈ 290 µg/mL) and the “% Haemolysis at 200 μM” value (human red blood cells; human, 1 h, pH 7.2) was ≤1%. For the same compound, the MBC ([2]; Enterococcus, Table 2, read-out: VRE ATCC 700221 MBC) was 125 µM (≈ 72.5 µg/mL), the MIC ([3]; Table 2, ATCC 700221, read-out: VRE MIC) was 75 µM (≈ 43.5 µg/mL) and the MIC ([6]; Table 2, 2 to 6 independent experiments, read-out: MRSA-2 MIC) was 18.8 µM (≈ 10.9 µg/mL). The MIC ([6]; read-out: MIC) was > 100 µM, the MIC ([4]; Staphylococcus epidermidis) was 9.38 µM (≈ 5.44 µg/mL) and the MIC [7] was 9.38 to 75 µM (≈ 5.44 to 43.5 µg/mL). For the same compound, the MBC ([5]; Staphylococcus epidermidis, Table 2, read-out: MRSE ATCC 35984 MBC) was 250 µM (≈ 145 µg/mL).
